Measured values: patent US7718612B2, “Pyridazinonyl macrocyclic hepatitis C serine protease inhibitors” (Enanta Pharmaceuticals, Inc., priority 2006, dated 2010)
Where two headings read alike, the source gives them in different places.

Tests used:
[1] = test system: HCV replicon RNA in Huh 11-7 cell line; experiment: Cell-Based Replicon Assay; conditions: Hepatitis C virus, 96 h, read-out: EC50 in the Cell-Based Replicon Assay
Procedure: Quantification of HCV replicon RNA (HCV Cell Based Assay) is accomplished using the Huh 11-7 cell line (Lohmann, et al Science 285:110-113, 1999). Cells are seeded at 4×10^3 cells/well in 96 well plates and fed media containing DMEM (high glucose), 10% fetal calf serum, penicillin-streptomycin and non-essential amino acids. Cells are incubated in a 7.5% CO2 incubator at 37° C. At the end of the incubation period, total RNA is extracted and purified from cells using Ambion RNAqueous 96 Kit (Catalog No. AM1812). To amplify the HCV RNA so that sufficient material can be detected by an HCV specific probe (below), primers specific for HCV (below) mediate both the reverse transcription of the HCV RNA and the amplification of the cDNA by polymerase chain reaction (PCR) using the TaqMan One-Step RT-PCR Master Mix Kit (Applied Biosystems catalog no. 4309169). The nucleotide sequences of the RT-PCR primers, which are located in the NS5B region of the HCV genome, are the following:
Detection of the RT-PCR product is accomplished using the Applied Biosystems (ABI) Prism 7500 Sequence Detection System (SDS) that detects the fluorescence that is emitted when the probe, which is labeled with a fluorescence reporter dye and a quencher dye, is degraded during the PCR reaction. The increase in the amount of fluorescence is measured during each cycle of PCR and reflects the increasing amount of RT-PCR product. Specifically, quantification is based on the threshold cycle, where the amplification plot crosses a defined fluorescence threshold. […] The data is analyzed using the ABI SDS program version 1.7. […]
The RT-PCR product was detected using the following labeled probe: […]
To normalize the data to an internal control molecule within the cellular RNA, RT-PCR is performed on the cellular messenger RNA glyceraldehyde-3-phosphate dehydrogenase (GAPDH). […] GAPDH RT-PCR is performed on the same RNA sample from which the HCV copy number is determined. […] The ratio of HCV/GAPDH RNA is used to calculate the activity of compounds evaluated for inhibition of HCV RNA replication. […]

[2] = target: T1, full-length NS3 HCV protease 1b tethered with NS4A cofactor (Hepatitis C virus genotype 1b, UniProt Q9WMX2); experiment: NS3/NS4a Protease Enzyme Assay; format: biochemical
T1 construct: full-length NS3 HCV protease 1b tethered with NS4A cofactor; NS4A cofactor (tethered, fused to NS3)
Procedure: HCV protease activity and inhibition is assayed using an internally quenched fluorogenic substrate. A DABCYL and an EDANS group are attached to opposite ends of a short peptide. Quenching of the EDANS fluorescence by the DABCYL group is relieved upon proteolytic cleavage. Fluorescence is measured with a Molecular Devices Fluoromax (or equivalent) using an excitation wavelength of 355 nm and an emission wavelength of 485 nm.
The assay is run in Corning white half-area 96-well plates (VWR 29444-312 [Corning 3693]) with full-length NS3 HCV protease 1b tethered with NS4A cofactor (final enzyme concentration 1 to 15 nM). The assay buffer is complemented with 10 μM NS4A cofactor Pep 4A (Anaspec 25336 or in-house, MW 1424.8). RET S1 (Ac-Asp-Glu-Asp(EDANS)-Glu-Glu-Abu-[COO]Ala-Ser-Lys-(DABCYL)-NH2, AnaSpec 22991, MW 1548.6) is used as the fluorogenic peptide substrate. The assay buffer contains 50 mM Hepes at pH 7.5, 30 mM NaCl and 10 mM BME. The enzyme reaction is followed over a 30 minutes time course at room temperature in the absence and presence of inhibitors.
The peptide inhibitors HCV Inh 1 (Anaspec 25345, MW 796.8) Ac-Asp-Glu-Met-Glu-Glu-Cys-OH, [−20° C.] and HCV Inh 2 (Anaspec 25346, MW 913.1) Ac-Asp-Glu-Dif-Cha-Cys-OH, are used as reference compounds.
IC50 values are calculated using XLFit in ActivityBase (IDBS) using equation 205: y=A+((B−A)/(1+((C/x)^D))).

[3] = Huh 11-7 cells, 4 days, HCV/GAPDH RNA ratio

T1 sequence (Q9WMX2 1013-1657, looked up, natural form): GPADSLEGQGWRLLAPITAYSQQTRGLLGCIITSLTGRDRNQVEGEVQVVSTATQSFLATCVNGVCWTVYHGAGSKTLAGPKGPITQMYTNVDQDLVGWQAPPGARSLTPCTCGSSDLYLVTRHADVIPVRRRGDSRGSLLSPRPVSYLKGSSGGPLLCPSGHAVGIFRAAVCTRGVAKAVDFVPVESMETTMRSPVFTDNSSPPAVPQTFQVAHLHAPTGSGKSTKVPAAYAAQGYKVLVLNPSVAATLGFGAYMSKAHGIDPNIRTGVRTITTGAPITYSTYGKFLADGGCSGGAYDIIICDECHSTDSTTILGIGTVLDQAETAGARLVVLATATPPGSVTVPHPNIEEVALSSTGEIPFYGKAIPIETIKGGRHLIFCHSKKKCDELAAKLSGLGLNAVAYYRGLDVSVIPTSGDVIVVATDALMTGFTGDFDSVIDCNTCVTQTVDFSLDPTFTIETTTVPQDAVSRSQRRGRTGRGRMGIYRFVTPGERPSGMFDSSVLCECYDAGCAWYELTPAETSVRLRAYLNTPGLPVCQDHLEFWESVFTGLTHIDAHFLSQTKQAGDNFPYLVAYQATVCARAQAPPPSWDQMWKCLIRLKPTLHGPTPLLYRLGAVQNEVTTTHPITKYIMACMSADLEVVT

Row | Structure (SMILES) | EC50 [1] [nM] | IC50 [2] [nM] | EC50 [1, 3] [nM]
1 | COc1c(-c2cccc3ccccc23)cnn([C@@H]2C[C@H]3C(=O)N[C@]4(C(=O)NS(=O)(=O)C5CC5)C[C@H]4/C=C\CCCCC[C@H](NC(=O)OC(C)(C)C)C(=O)N3C2)c1=O [Example 30] | < 0.2 | 0.1 | –
2 | COc1c(-c2cccc3ccccc23)cnn(C2CC3C(=O)NC4(C(=O)NS(=O)(=O)C5CC5)CC4C=CCCCCCC(NC(=O)OC4CCCC4)C(=O)N3C2)c1=O (stereo not drawn) [Example 32] | – | 0.4 | < 0.2
3 | COc1c(-c2cccc3ccccc23)cnn(C2CC3C(=O)NC4(C(=O)NS(=O)(=O)C5CC5)CC4C=CCCCCCC(NC(=O)c4cccs4)C(=O)N3C2)c1=O (stereo not drawn) [Example 34] | – | 0.2 | < 0.2
